Measured values: patent publication US20250248393A1, “METHOD OF RELEASING A SEMIOCHEMICAL IN THE ENVIRONEMENT BY PASSIVE DIFFUSION, SYSTEM AND MEANS, ESPECIALLY STICKS, TO THIS END, AND USES THEREOF” (SIGNS, priority 2024, published 2025)

Legend:
Assay type in all cases: physicochemical
[1] = DAP PCDS direct diffusion (SPME-GC/MS); settings: DAP/PCDS diffuser, 40 mL, 6 capillaries
Method: Three diffusers, each containing 40 mL of solution and 6 capillaries, were prepared and diffused. The first points were measured at T=1d, T=2, and T=3d, then every Monday, Wednesday and Friday of each study week until the diffusers no longer contained any solution. To measure the pheromone released into the air at each study time, the diffuser is first weighed (with the sticks) to measure mass loss, then placed in an enclosed area (in this case, an upside-down aquarium) containing a SPME fiber, as shown in FIG. 24.
The fiber is left to diffuse above the diffuser for 2 hours (a time determined in a previous method development as the optimum time for molecules to adsorb to the phase), then analyzed using the gas chromatography/mass spectrometry (GC/MS) technique.
Three diffusers were studied for greater accuracy. The chromatograms obtained are reprocessed using GC/MS Solution software.
For each chromatographic peak, the area is recorded using GC/MS Solution software, then entered into an Excel spreadsheet. Diffusion curves giving the area of the chromatographic peak corresponding to each active ingredient as a function of time are then plotted.
Analyses were carried out by gas chromatography/mass spectrometry (GC/MS). The instrument was a Shimadzu GCMS QP2010SE® equipped with an AOC 6000® autosampler. Separation was carried out on a ZB-FFAP® column (30 m×0.25 mm×0.25 μm, stationary phase: nitroterephthalic acid-modified polyethylene glycol) supplied by Phenomenex. The furnace temperature was initially set at 80° C. for 1 minute, then increased at 10° C./min to 240° C. and maintained at this temperature for 2 minutes. The carrier gas was helium at a flow rate of 1 mL/min. Analysis time is 19 minutes.
The injector is a split/splitless injector used in split mode (temperature: 250° C., split: 50:1). The SPME fiber was injected directly into the injector and left to desorb for 15 minutes.
The separated molecules were detected using a mass spectrometer equipped with an electron impact source (temperature: 200° C.). The analyzer is a simple quadrupole. The interface temperature is 250° C. Data were acquired in FASST mode (Fast automated SCAN/SIM type), i.e. part of the analysis was performed by scanning all ions (SCAN) and part by selecting specific ions (SIM). Target molecules were thus analyzed using ion selection.

[2] = Ratios of molecules diffused through the sticks over time
Method: Furthermore, as small molecules diffuse more, it happens that they lose intensity over the course of the study, so the ratios are different 24 hours after immersing the sticks in the liquid and 21 days later. Here are the ratios for each pheromone studied at the start of the study and at the end.

[3] = Direct diffusion of diffuser blocks (SPME GC/MS); settings: despecified pheromone 2%, 4 weeks
Method: Analyses were carried out using gas chromatography (GC) coupled to a mass spectrometer (MS) detector, a technique commonly referred to as GCMS. The molecules of interest were extracted using the Solid Phase Micro-Extraction (SPME) technique. The instrument used was the following: QP2010SE® from Shimadzu (See FIG. 4).
AOC 6000® automatic feeder • Extraction/SPME fiber: polyacrylate/Fused silica (85 μm), 23 Ga. • Adsorption time: 2 hours (exposure time of fiber above block) (See FIG. 4) • Desorption time: 30 minutes (fiber exposure time in injector) • Fiber-block distance: 2 cm • Injection: split/splitless injector • Temperature: 250° C., split 50 mode. • Separation: ZB-FFAP® column (Phénomenex), length: 30 m, diameter: 250 μm, film thickness: […]
• Carrier gas: Helium (He) • Analysis time: 18 min (not including time to return to equilibrium between each analysis injection • Detection: mass spectrometer with electron impact source/analyzer: quadrupole. • Source temperature: 200° C. • Interface temperature: 250° C. • Scan m/z 50 to m/z 500 • SIM with ions 55, 66 and 74.
Analyses were carried out in triplicate to verify reproducibility of results.
With the SPME method, results are evaluated by measuring the chromatographic peak area. The data have been plotted on diffusion curve (see FIGS. 5 and 6).

[4] = Pheromone migrated to the stick tips (GC/FID); settings: on stick tips, despecified pheromone
Method: In the course of this study, we also measured the amount of pheromone migrating on the sticks, to check that the pheromone had migrated to the top of the sticks, helping it to diffuse into the air. To do this, the test is the same as for the diffuser blocks: 2.5 g of stick tips are cut off and placed in a 50 mL flask, which is then placed in an ultrasonic bath for one hour. The resulting solution is filtered (to avoid injecting particles into the instrument) and placed in a chromatographic vial for analysis.

[5] = F3 direct diffusion and mass loss, 40 mL and eight sticks with a refill; settings: F3, eight sticks
Method: To that purpose, three devices containing 40 mL of F3 feline facial pheromone product and eight rattan sticks were prepared and left on diffusion. Every Monday, Wednesday and Friday, the diffusion of the pheromone in air was checked by analysis by gas chromatography coupled with mass spectrometer (GC/MS) and SPME (solid phase microextraction) until there was no liquid left. Then, the solution was refilled and a second study of the diffusion of the pheromone was performed.
Experimentally, the studied device was taken and placed into a closed space under identical conditions than in section E/, and for analyzing the same data.
Each measuring day, the devices were weighed and the level of the solution in the flask was controlled.

[6] = F3 block stability study in sodium stearate aqueous gel (GC-MS); settings: after 3 months
Method: Aqueous sodium stearate gel is a method used by SIGNS for several of the pheromones it markets (pork, poultry, rabbit). The sodium stearate matrix is cast at high temperature (60° C.) and contains 2% pheromone. In this study, matrix samples are taken by coring, and the active ingredients are extracted by apolar solvent, using the SIGNS-validated quality control method. Extracts are analyzed by GC-MS. […] Given this observation, formula F3 cannot be used in blocks for passive diffusion, so a change of galenic formulation is necessary.

[7] = DAP, 24 h after immersion of sticks
[8] = DAP, 21 days after immersion of sticks (empty tank)
[9] = Despecified pheromone (Core), 5 days after immersion of the sticks
[10] = Despecified pheromone (Core), 21 days after immersion of sticks (empty tank)
[11] = F3, 24 h after immersion of sticks
[12] = F3, 21 days after immersion of sticks (empty tank)
[13] = F3P, 24 h after immersion of the sticks
[14] = F3P, 21 days after immersion of sticks (empty tank)

Row | Structure (SMILES) | direct diffusion over time [1] | ratio of molecules diffused through the sticks [2, 7] | ratio of molecules diffused through the sticks [2, 8] | ratio of molecules diffused through the sticks [2, 9] | ratio of molecules diffused through the sticks [2, 10] | ratio of molecules diffused through the sticks [2, 11] | ratio of molecules diffused through the sticks [2, 12] | ratio of molecules diffused through the sticks [2, 13] | ratio of molecules diffused through the sticks [2, 14] | direct diffusion from the diffuser block [3] | % of the active ingredient in the pheromone ([4]; day 7) [%] | % of the active ingredient in the pheromone ([4]; day 14) [%] | % of the active ingredient in the pheromone ([4]; day 21) [%] | intensity of direct diffusion [5] | stability in the block [6]
1 | CCCCCCCC/C=C\CCCCCCCC(=O)OC [methyl oleate, methyl (Z)-octadec-9-enoate] | slight increase over time | 2 % (w/w) | 3.5 % (w/w) | 3 % (w/w) | 4 % (w/w) | 2 % (w/w) | 4 % (w/w) | 0.6 % (w/w) | 2 % (w/w) | lowest intensity | 31.3 | 31.5 | 32.6 | less intensity | remained stable
2 | CCCCCCCCCCCCCCCC(=O)OC [methyl palmitate, methyl hexadecanoate] | slight increase over time | 9.5 % (w/w) | 12 % (w/w) | 19 % (w/w) | 22 % (w/w) | 3 % (w/w) | 5 % (w/w) | 1 % (w/w) | 3.4 % (w/w) | diffuse better | 29.8 | 30.2 | 32.5 | less intensity | remained stable
